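Step 1: Grow cells in 96-well plates. Step 2: Expose to compound for 48 hours at 5 concentrations. Step 3: Interpolate endpoints linearly; if unreached, use highest concentration. GI50 marks 50% less growth.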 Active and inactive are the calls of the source. Cut-off read from the data, not from the text of the source: active = GI50 up to about 1.1 µM and inactive = higher.
How the values were obtained:
Assay in all cases: NCI tumour cell line growth inhibition, 48 h
A498 = system: A498
IGROV-1 = system: IGROV-1
MOLT-4 = system: MOLT-4
Hs-578T = system: Hs-578T
MDA-N = system: MDA-N
Malme-3M = system: Malme-3M
MCF7 = system: MCF7
K562 = system: K562
U-251 = system: U-251
HCC 2998 = system: HCC 2998
SN12C = system: SN12C
SNB-75 = system: SNB-75
NCI-H226 = system: NCI-H226
BT-549 = system: BT-549
MDA-MB-231 = system: MDA-MB-231
OVCAR-8 = system: OVCAR-8
HCT-15 = system: HCT-15
MDA-MB-435 = system: MDA-MB-435
T47D = system: T47D
HL-60 = system: HL-60
A549 = system: A549
EKVX = system: EKVX
CAKI-1 = system: CAKI-1
OVCAR-3 = system: OVCAR-3
SK-OV-3 = system: SK-OV-3
PC-3 = system: PC-3
DU-145 = system: DU-145
M14 = system: M14
HT-29 = system: HT-29
OVCAR-5 = system: OVCAR-5
HCT-116 = system: HCT-116
NCI-H460 = system: NCI-H460
SNB-19 = system: SNB-19
TK-10 = system: TK-10
LOX IMVI = system: LOX IMVI
RPMI-8226 = system: RPMI-8226
ACHN = system: ACHN
NCI/ADR-RES = system: NCI/ADR-RES
UACC-62 = system: UACC-62
HOP-92 = system: HOP-92
SF-295 = system: SF-295
CCRF-CEM = system: CCRF-CEM
KM12 = system: KM12
SK-MEL-5 = system: SK-MEL-5
786-0 = system: 786-0
NCI-H23 = system: NCI-H23
UACC-257 = system: UACC-257
RXF 393 = system: RXF 393
SF-268 = system: SF-268
SR = system: SR
UO-31 = system: UO-31
COLO 205 = system: COLO 205
SW-620 = system: SW-620
SF-539 = system: SF-539
OVCAR-4 = system: OVCAR-4
SK-MEL-28 = system: SK-MEL-28
NCI-H522 = system: NCI-H522
HOP-62 = system: HOP-62
SK-MEL-2 = system: SK-MEL-2

With `c1ccc(-c2c(-c3cccs3)[nH]c(-c3cccs3)c2-c2ccccn2)nc1` the GI50 (A498) was 27.5 µM (inactive), the GI50 (IGROV-1) was 22.5 µM (inactive) and the GI50 (MOLT-4) was 11.7 µM (inactive). The GI50 (Hs-578T) was 33.4 µM (inactive), the GI50 (MDA-N) was 0.199 µM (active) and the GI50 (Malme-3M) was 25.5 µM (inactive). The GI50 (MCF7) was > 10 µM (inactive), the GI50 (K562) was 11.7 µM (inactive) and the GI50 (U-251) was 20.2 µM (inactive). For the same molecule, the GI50 (HCC 2998) was 20.2 µM (inactive), the GI50 (SN12C) was 21.1 µM (inactive) and the GI50 (SNB-75) was 17.6 µM (inactive). For the same molecule, the GI50 (NCI-H226) was 23 µM (inactive), the GI50 (BT-549) was 22.2 µM (inactive) and the GI50 (MDA-MB-231) was 20.3 µM (inactive). For the same molecule, the GI50 (OVCAR-8) was 26.4 µM (inactive), the GI50 (HCT-15) was 15.1 µM and the GI50 (MDA-MB-435) was 15.7 µM (inactive). The GI50 (T47D) was 18.2 µM (inactive), the GI50 (HL-60) was 26.5 µM (inactive) and the GI50 (A549) was 18.1 µM (inactive). For the same molecule, the GI50 (EKVX) was 22.9 µM (inactive), the GI50 (CAKI-1) was 37.4 µM (inactive) and the GI50 (OVCAR-3) was 24 µM (inactive). For the same molecule, the GI50 (SK-OV-3) was 21.9 µM (inactive), the GI50 (PC-3) was 10.6 µM (inactive) and the GI50 (DU-145) was 0.27 µM (active). The GI50 (M14) was 20.2 µM (inactive), the GI50 (HT-29) was 14.2 µM (inactive) and the GI50 (OVCAR-5) was 30.5 µM (inactive). For the same molecule, the GI50 (HCT-116) was 0.127 µM (active), the GI50 (NCI-H460) was 21.3 µM (inactive) and the GI50 (SNB-19) was 33.5 µM (inactive). For the same molecule, the GI50 (TK-10) was 40.2 µM (inactive), the GI50 (LOX IMVI) was 12.4 µM (inactive) and the GI50 (RPMI-8226) was 20 µM (inactive). The GI50 (ACHN) was 30.5 µM (inactive), the GI50 (NCI/ADR-RES) was 17.2 µM (inactive) and the GI50 (UACC-62) was 18 µM (inactive). The GI50 (HOP-92) was 25.8 µM (inactive), the GI50 (SF-295) was 20.2 µM (inactive) and the GI50 (CCRF-CEM) was 8.24 µM (inactive). For the same molecule, the GI50 (KM12) was 23.1 µM (inactive), the GI50 (SK-MEL-5) was 13.7 µM (inactive) and the GI50 (786-0) was 22.6 µM (inactive). The GI50 (NCI-H23) was 26.2 µM (inactive), the GI50 (UACC-257) was 22 µM (inactive) and the GI50 (RXF 393) was 20.5 µM (inactive). The GI50 (SF-268) was 19.7 µM (inactive), the GI50 (SR) was 26.2 µM (inactive) and the GI50 (UO-31) was 19.2 µM (inactive). For the same molecule, the GI50 (COLO 205) was 15 µM (inactive), the GI50 (SW-620) was 13 µM (inactive) and the GI50 (SF-539) was 20.4 µM (inactive).
With `Cc1ccc(C2=CC(=O)/C(=C\C(=O)c3ccc(Cl)cc3)O2)cc1` the GI50 (A498) was 27.2 µM (inactive), the GI50 (IGROV-1) was 16.2 µM (inactive) and the GI50 (MOLT-4) was 3.94 µM (inactive). For the same molecule, the GI50 (Hs-578T) was 23.9 µM (inactive), the GI50 (MDA-N) was 3.2 µM (inactive) and the GI50 (Malme-3M) was 17.2 µM (inactive). The GI50 (MCF7) was 10.6 µM (inactive), the GI50 (K562) was 4.15 µM (inactive) and the GI50 (U-251) was 17.7 µM (inactive). The GI50 (HCC 2998) was 27.4 µM (inactive), the GI50 (SNB-75) was 35.8 µM (inactive) and the GI50 (NCI-H226) was 17.2 µM (inactive). The GI50 (OVCAR-4) was 15.9 µM (inactive), the GI50 (BT-549) was 1.86 µM (inactive) and the GI50 (MDA-MB-231) was 12.1 µM (inactive). For the same molecule, the GI50 (SK-MEL-28) was 16.9 µM (inactive), the GI50 (OVCAR-8) was 3.13 µM (inactive) and the GI50 (HCT-15) was 17.7 µM. The GI50 (MDA-MB-435) was 18 µM (inactive), the GI50 (T47D) was 7.18 µM (inactive) and the GI50 (NCI-H522) was 1.97 µM (inactive). For the same molecule, the GI50 (HL-60) was 0.902 µM (active), the GI50 (EKVX) was 70 µM (inactive) and the GI50 (CAKI-1) was 2.3 µM (inactive). The GI50 (OVCAR-3) was 4.7 µM (inactive), the GI50 (SK-OV-3) was 6.43 µM (inactive) and the GI50 (PC-3) was 2.43 µM (inactive). For the same molecule, the GI50 (DU-145) was 32.6 µM (inactive), the GI50 (M14) was 18.3 µM (inactive) and the GI50 (HT-29) was 4.14 µM (inactive). For the same molecule, the GI50 (OVCAR-5) was 21.1 µM (inactive), the GI50 (HCT-116) was 14.3 µM (inactive) and the GI50 (NCI-H460) was > 10 µM (inactive). The GI50 (SNB-19) was 49.2 µM (inactive), the GI50 (TK-10) was 3.23 µM (inactive) and the GI50 (LOX IMVI) was 1.43 µM (inactive). The GI50 (RPMI-8226) was 2.08 µM (inactive), the GI50 (ACHN) was 5.09 µM (inactive) and the GI50 (NCI/ADR-RES) was 15.5 µM (inactive). For the same molecule, the GI50 (UACC-62) was 11.6 µM (inactive), the GI50 (HOP-92) was 14.1 µM (inactive) and the GI50 (CCRF-CEM) was 3.19 µM (inactive). For the same molecule, the GI50 (KM12) was 22.8 µM (inactive), the GI50 (SK-MEL-5) was 14.5 µM (inactive) and the GI50 (786-0) was 9.95 µM (inactive). The GI50 (NCI-H23) was 24.2 µM (inactive), the GI50 (UACC-257) was 0.1 µM (active) and the GI50 (HOP-62) was 97.9 µM (inactive). For the same molecule, the GI50 (RXF 393) was 4.6 µM (inactive), the GI50 (SF-268) was 17.1 µM (inactive) and the GI50 (SR) was 1.42 µM (inactive). For the same molecule, the GI50 (UO-31) was 9.51 µM (inactive), the GI50 (COLO 205) was 13.3 µM (inactive) and the GI50 (SW-620) was 2.39 µM (inactive). The GI50 (SF-539) was 21.2 µM (inactive).
With `COc1ccc(C2(C3c4cc(OC)c(OC)cc4CCN3C)SCCCS2)cc1O` (stereo not given) the GI50 (A498) was > 100 µM (inactive), the GI50 (IGROV-1) was > 100 µM (inactive) and the GI50 (MOLT-4) was 26 µM (inactive). The GI50 (Hs-578T) was 23.7 µM (inactive), the GI50 (MDA-N) was > 100 µM (inactive) and the GI50 (Malme-3M) was > 100 µM (inactive). For the same molecule, the GI50 (MCF7) was > 100 µM (inactive), the GI50 (K562) was 95.1 µM (inactive) and the GI50 (U-251) was > 100 µM (inactive). The GI50 (HCC 2998) was > 100 µM (inactive), the GI50 (SN12C) was > 100 µM (inactive) and the GI50 (OVCAR-4) was > 100 µM (inactive). The GI50 (BT-549) was > 100 µM (inactive), the GI50 (MDA-MB-231) was > 100 µM (inactive) and the GI50 (SK-MEL-28) was 68.2 µM (inactive). For the same molecule, the GI50 (OVCAR-8) was > 100 µM (inactive), the GI50 (HCT-15) was greater than 100 µM and the GI50 (MDA-MB-435) was > 100 µM (inactive). For the same molecule, the GI50 (T47D) was > 100 µM (inactive), the GI50 (NCI-H522) was 41.7 µM (inactive) and the GI50 (HL-60) was > 100 µM (inactive). The GI50 (A549) was > 100 µM (inactive), the GI50 (EKVX) was 60 µM (inactive) and the GI50 (CAKI-1) was > 100 µM (inactive). For the same molecule, the GI50 (OVCAR-3) was > 100 µM (inactive), the GI50 (SK-OV-3) was 72.9 µM (inactive) and the GI50 (PC-3) was 47.1 µM (inactive). The GI50 (DU-145) was > 100 µM (inactive), the GI50 (M14) was > 100 µM (inactive) and the GI50 (HT-29) was 49.3 µM (inactive). The GI50 (OVCAR-5) was > 100 µM (inactive), the GI50 (HCT-116) was 67.9 µM (inactive) and the GI50 (NCI-H460) was > 100 µM (inactive). For the same molecule, the GI50 (SNB-19) was > 100 µM (inactive), the GI50 (TK-10) was > 100 µM (inactive) and the GI50 (LOX IMVI) was > 100 µM (inactive). The GI50 (RPMI-8226) was > 100 µM (inactive), the GI50 (NCI/ADR-RES) was 94 µM (inactive) and the GI50 (UACC-62) was > 100 µM (inactive). The GI50 (HOP-92) was 76.2 µM (inactive), the GI50 (SF-295) was 71.8 µM (inactive) and the GI50 (CCRF-CEM) was > 100 µM (inactive). The GI50 (KM12) was 71.8 µM (inactive), the GI50 (SK-MEL-5) was > 100 µM (inactive) and the GI50 (786-0) was > 100 µM (inactive). The GI50 (SK-MEL-2) was > 100 µM (inactive), the GI50 (NCI-H23) was > 100 µM (inactive) and the GI50 (UACC-257) was > 100 µM (inactive). For the same molecule, the GI50 (HOP-62) was > 100 µM (inactive), the GI50 (RXF 393) was > 100 µM (inactive) and the GI50 (SF-268) was > 100 µM (inactive). The GI50 (SR) was 68.1 µM (inactive), the GI50 (UO-31) was > 100 µM (inactive) and the GI50 (COLO 205) was > 100 µM (inactive). For the same molecule, the GI50 (SW-620) was > 100 µM (inactive) and the GI50 (SF-539) was > 100 µM (inactive).
